US6087355A, “Cephalosporin antibiotics” (Microcide Pharmaceuticals, Inc., priority 1996, dated 2000)
Counter-ions that a name gives are not always drawn. Like-named read-outs stand apart in the source and are kept apart here.

Legend:
[1] = test system: S. aureus Col(Meth^R)(lac^-); assay: In vitro MIC, agar dilution; assay type: cell-based; conditions: Staphylococcus aureus, read-out: minimum inhibitory concentration (MIC)
Experimental: (§1) The compounds of the invention were evaluated against several β-lactamresistant (for example methicillin-resistant, vancomycin resistant, and/or ampicillin-resistant) bacteria strains by determining the minimum inhibitory concentration (MIC, μg/ml) of each compound with respect to each strain. The MIC, the lowest concentration of antibiotic which inhibits growth of the test organism, was determined by the agar dilution method.
(§2) To determine the MIC for bacterial isolates, the test compound was incorporated in a series of two-fold dilutions into liquified Mueller-Hinton agar. Upon solidification, a number of different bacterial strains were spot inoculated with a replicating device onto the agar surface.
(§3) Aliquots of antimicrobial agents were prepared in phosphate buffered saline (PBS) at pH 7.2. Tween 20 or DMSO was used as a solubilizing vehicle as needed. Standard methods of vortexing, sonicating and gentle heat were used to facilitate solubilizing the test agent. […] A 1.28 mg/mL stock solution was used with a subsequent highest working concentration of 128 μg/mL. Serial two-fold dilutions were done through ≤0.25 μg/mL. Each drug level was tested in duplicate. Two-fold drug dilutions were done in sterile 50 mL tubes with a final drug volume of 5 mL. Upon the addition of 45 mL of molten agar, a 10-fold dilution resulted. Two, 25 mL. plates were then poured into 15×150 mm square Petri plates with grids and allowed to harden.
(§4) A control plate with a reference drug, either cefotaxime, vancomycin or imipenem, was used as the positive growth control. Stock concentrations of reference antibiotics were prepared and frozen at -80° C. […] All test plates were used within 24 hours of preparation.
(§5) Satisfactory results were obtained where the inoculum contained about 10^4 colony forming units (cfu)±0.5 logs. Starting with pure cultures of the test isolates on agar plates, a few isolated colonies were transferred to a tube of nutrient broth and allowed to grow 4-6 hours at 35-36° C. to reach log-phase growth. Dropwise addition of the broth culture to PBS was done to match a 0.5 McFarland turbidity standard equal to 10^8 cfu/mL. This was further diluted ten-fold in PBS to reach a working inoculum concentration of 10^7 cfu/mL. When 1 μL of the working inoculum was applied to the agar surface a concentration of about 10^4 cfu per spot was obtained.
(§6) Disposable sterile 1 μL loops were used to inoculate test plates, with each isolate in a designated grid on the agar plate. An alternate method of inoculation involved the use of a replica plater, a device with 48 steel pins allowing the simultaneous inoculation of multiple isolates. After the spots had dried, the plates were incubated at 35-36° C. for 16-20 hours. Endpoints were assessed as the minimum inhibitory concentration (MIC) of antimicrobial agent.
The S. aureus Col strain is a high-level PBP2a producer, whereas S. aureus Col 8A, its isogenic partner, lacks PBP2a.

[2] = test system: S. aureus PC1(Meth^S)(lac^+); assay: In vitro MIC, agar dilution; assay type: cell-based; conditions: Staphylococcus aureus, read-out: minimum inhibitory concentration (MIC)
Experimental: as §1, §2, §3, §4, §5, §6

[3] = test system: S. aureus ATCC 13709(Meth^S); assay: In vitro MIC, agar dilution; assay type: cell-based; conditions: Staphylococcus aureus, ATCC13709, S. aureus ATCC 13709(Meth^S); read-out: minimum inhibitory concentration (MIC)
Experimental: as §1, §2, §3, §4, §5, §6

E. faecalis VanB(Van^R) = assay: In vitro MIC, agar dilution; assay type: cell-based; conditions: Enterococcus faecalis, read-out: minimum inhibitory concentration (MIC)
Experimental: as §1, §2, §3, §4, §5, §6

P. aeruginosa ATCC 27853 = assay: In vitro MIC, agar dilution; assay type: cell-based; conditions: Pseudomonas aeruginosa, ATCC27853, read-out: minimum inhibitory concentration (MIC)
Experimental: as §1, §2, §3, §4, §5, §6

E. faecium VanA(Van^R) = assay: In vitro MIC, agar dilution; assay type: cell-based; conditions: Enterococcus faecium, read-out: minimum inhibitory concentration (MIC)
Experimental: as §1, §2, §3, §4, §5, §6

[4] = test system: S. aureus ATCC 33593(Meth^R); assay: In vitro MIC, agar dilution; assay type: cell-based; conditions: Staphylococcus aureus, ATCC33593, read-out: minimum inhibitory concentration (MIC)
Experimental: as §1, §2, §3, §4, §5, §6

E. faecium ATCC 35667 = assay: In vitro MIC, agar dilution; assay type: cell-based; conditions: Enterococcus faecium, ATCC35667, read-out: minimum inhibitory concentration (MIC)
Experimental: as §1, §2, §3, §4, §5, §6

[5] = test system: S. haemolyticus 05(Meth^R); assay: In vitro MIC, agar dilution; assay type: cell-based; conditions: Staphylococcus haemolyticus, read-out: minimum inhibitory concentration (MIC)
Experimental: as §1, §2, §3, §4, §5, §6

S. aureus ATCC 29213 = assay: In vitro MIC, agar dilution; assay type: cell-based; conditions: Staphylococcus aureus, ATCC29213, read-out: minimum inhibitory concentration (MIC)
Experimental: as §1, §2, §3, §4, §5, §6

[6] = test system: S. aureus Spain #356(Meth^R); assay: In vitro MIC, agar dilution; assay type: cell-based; conditions: Staphylococcus aureus, read-out: minimum inhibitory concentration (MIC)
Experimental: as §1, §2, §3, §4, §5, §6

[7] = test system: S. aureus 76(Meth^R)(lac^+); assay: In vitro MIC, agar dilution; assay type: cell-based; conditions: Staphylococcus aureus, read-out: minimum inhibitory concentration (MIC)
Experimental: as §1, §2, §3, §4, §5, §6

E. faecium A491(Amp^R) = assay: In vitro MIC, agar dilution; assay type: cell-based; conditions: Enterococcus faecium, read-out: minimum inhibitory concentration (MIC)
Experimental: as §1, §2, §3, §4, §5, §6

E. faecalis ATCC 29212 = assay: In vitro MIC, agar dilution; assay type: cell-based; conditions: Enterococcus faecalis, ATCC29212, read-out: minimum inhibitory concentration (MIC)
Experimental: as §1, §2, §3, §4, §5, §6

E. coli ATCC 25992 = assay: In vitro MIC, agar dilution; assay type: cell-based; conditions: Escherichia coli, ATCC25992, read-out: minimum inhibitory concentration (MIC)
Experimental: as §1, §2, §3, §4, §5, §6

[8] = test system: S. aureus strain ATCC 13709 (methicillin-susceptible); assay: Murine model for lethal bacteremic peritonitis; assay type: in vivo, female Swiss-Webster mice; conditions: Staphylococcus aureus, 72 h
Experimental: Groups of 5 female Swiss-Webster mice (Simonsen, Gilroy, Calif.) each are challenged by the intraperitoneal (IP) route with tenfold increments of a bacterial inoculum. This permits calculation of the mean lethal dose (LD50) and the LD100. For preliminary evaluation of a new antibiotic, mice are challenged IP with an LD100 titer of bacteria. In two equal doses administered at the time of bacterial challenge and 2 hours later, groups of 10 mice each are treated subcutaneously with two-fold increments of the test drug and an antibiotic of known efficacy in mice and humans (i.e., positive control). Mice are observed for 72 h. Those alive at 72 h are considered long term survivors. The total drug dose in mg/kg that protects 50% of mice in a group from death is termed the mean protective dose (PD50). PD50 s are similarly determined for several pathogens. The quantitative endpoints for the new drug are then compared with those obtained with reference antibiotics.
Six ten-fold dilutions of inoculum suspended in 0.5 mL of sterilized 7% hog gastric mucin (Sigma) are injected IP in groups of 5 mice each. A control group of 5 mice receive mucin alone. Mice are observed for 72 h. Those alive at 72 h are considered long term survivors. The mean lethal dose (LD50) and 100% lethal dose (LD100) are determined by the probit test.
For antibiotic efficacy studies, mice are challenged IP with bacterial titers that will afford an LD100 for the test strain. In two equal doses administered at the time of bacterial challenge and 2 hours later, groups of 10 mice each are treated by the subcutaneous route (SC) with twofold increments of the test antibiotic; another group is treated similarly with a reference antibiotic of known efficacy in animals and man. Drug doses can range from 0.01 to 512 mg/kg. If the drug is poorly soluble, Tween 20 or propylene glycol will be employed to solubilize the drug. Animals are observed for 72 h. The 50% protective dose (PD50) is calculated in mg/kg by the probit method. The PD50 is the same as the 50% effective dose (ED50) and the 50% curative dose (CD50). Samples of blood from the hearts of all animals that die and from half the mice that survive are cultured on brain-heart infusion agar. Animals that received a protective dosage of the test drug will be alive at 72 h, although they may appear moderately ill to very ill during the observation period. […] Most of these mice will die within 6 to 48 h. Those alive at 72 h will be considered long term survivors.
(Compound numbers correspond to those in MIC tables; data reported for challenge with methicillin-susceptible S. aureus strain ATCC 13709.)

[9] = ATCC13709, sc, read-out: Survivors

N=C(N)SCc1nnsc1SC1=C(C(=O)O)N2C(=O)[C@@H](NC(=O)/C(=N\O)c3csc(N)n3)[C@H]2SC1 [Cmpd 4, (7R)-7-[(Z)-2-(aminothiazol-4-yl)-2-(hydroxyimino)acetamido]-3-(4-isothioureidomethyl-1,2,3-thiadiazol-5-ylthio)-3-cephem-4-carboxylate, trifluoroacetic acid salt]
MIC [1]: 8 µg/mL | MIC [2]: 0.25 µg/mL | MIC [3]: 0.25 µg/mL | MIC (E. faecalis VanB(Van^R)): 4 µg/mL | MIC (P. aeruginosa ATCC 27853): > 32 µg/mL | MIC (E. faecium VanA(Van^R)): 4 µg/mL | MIC [4]: 4 µg/mL | MIC (E. faecium ATCC 35667): 2 µg/mL | MIC [5]: 8 µg/mL | MIC (S. aureus ATCC 29213): 0.25 µg/mL | MIC [6]: 8 µg/mL | MIC [7]: 8 µg/mL | MIC (E. faecium A491(Amp^R)): > 32 µg/mL | MIC (E. faecalis ATCC 29212): 0.5 µg/mL | MIC (E. coli ATCC 25992): 4 µg/mL

N=C(N)SCc1cnccc1SC1=C(C(=O)O)N2C(=O)[C@@H](NC(=O)/C(=N\OC3CCCC3)c3csc(N)n3)[C@H]2SC1 [Cmpd 8, (7R)-7-[(Z)-2-(aminothiazol-4-yl)-2-(cyclopentyloxyimino)acetamido]-3-(3-isothioureidomethylpyrid-4-ylthio)-3-cephem-4-carboxylate, trifluoroacetic acid salt]
MIC [1]: 2 µg/mL | MIC [2]: 1 µg/mL | MIC [3]: 1 µg/mL | MIC (E. faecalis VanB(Van^R)): 0.5 µg/mL | MIC (P. aeruginosa ATCC 27853): > 32 µg/mL | MIC (E. faecium VanA(Van^R)): 8 µg/mL | MIC [4]: 4 µg/mL | MIC (E. faecium ATCC 35667): 2 µg/mL | MIC [5]: 4 µg/mL | MIC (S. aureus ATCC 29213): 1 µg/mL | MIC [6]: 4 µg/mL | MIC [7]: 4 µg/mL | MIC (E. faecium A491(Amp^R)): 32 µg/mL | MIC (E. faecalis ATCC 29212): 0.5 µg/mL | MIC (E. coli ATCC 25992): 2 µg/mL

CNCC(=O)NCCSCc1cnccc1SC1=C(C(=O)O)N2C(=O)[C@@H](NC(=O)/C(=N\O)c3csc(N)n3)[C@H]2SC1 [Cmpd 18, (7R)-7-[(Z)-2-(aminothiazol-4-yl)-2-(hydroxyimino)acetamido]-3-[3-(N-methylglycyl)aminoethylthiomethylpyrid-4-ylthio]-3-cephem-4-carboxylate, trifluoroacetic acid salt]
responders at 0.3125 mg/kg ([8]; ATCC13709, Dose 0.3125 mg/kg, SC, read-out: Survivors): 30% | responders at 0.625 mg/kg ([8]; ATCC13709, Dose 0.625 mg/kg, SC, read-out: Survivors): 20% | responders at 1.25 mg/kg ([8]; ATCC13709, Dose 1.25 mg/kg, SC, read-out: Survivors (converted)): 20% | responders at 2.5 mg/kg ([8]; ATCC13709, Dose 2.5 mg/kg, SC, read-out: Survivors): 20% | responders at 5 mg/kg ([8]; ATCC13709, Dose 5 mg/kg, SC, read-out: Survivors): 60% | ED50 ([8]; ATCC13709, SC, two equal doses, IP challenge, read-out: ED50): 4.44 mg/kg | MIC [2]: 1 µg/mL | MIC [3]: 1 µg/mL | MIC (E. faecalis VanB(Van^R)): 0.5 µg/mL | MIC (P. aeruginosa ATCC 27853): > 32 µg/mL | MIC (E. faecium VanA(Van^R)): 2 µg/mL | MIC [4]: 4 µg/mL | MIC (E. faecium ATCC 35667): 2 µg/mL | MIC [5]: 8 µg/mL | MIC (S. aureus ATCC 29213): 1 µg/mL | MIC [6]: 8 µg/mL | MIC [7]: 8 µg/mL | MIC (E. faecium A491(Amp^R)): > 32 µg/mL | MIC (E. faecalis ATCC 29212): 0.25 µg/mL | MIC (E. coli ATCC 25992): 8 µg/mL

CN[C@H](CC(C)C)C(=O)N[C@H]1C(=O)N[C@@H](CC(N)=O)C(=O)N[C@H]2C(=O)N[C@H]3C(=O)N[C@H](C(=O)N[C@H](C(=O)O)c4cc(O)cc(O)c4-c4cc3ccc4O)[C@H](O)c3ccc(c(Cl)c3)Oc3cc2cc(c3O[C@@H]2O[C@H](CO)[C@@H](O)[C@H](O)[C@H]2O[C@H]2C[C@](C)(N)[C@H](O)[C@H](C)O2)Oc2ccc(cc2Cl)[C@H]1O [Vancomycin, vancomycin, reference compound]
ED50 ([8]; ATCC13709, sc): 1.94 mg/kg | responders at 0.625 mg/kg [8, 9]: 20% | responders at 1.25 mg/kg [8, 9]: 20% | responders at 2.5 mg/kg [8, 9]: 40% | responders at 5 mg/kg [8, 9]: 100% | responders at 10 mg/kg [8, 9]: 100%
